Experimental data as given in PubChem BioAssay (NCI).
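48-hour exposure; five concentrations; linearly interpolated endpoints. At the GI50, growth is halved. At the TGI there is no net growth.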

Assays:
Test in all cases: NCI anticancer screen, dose series, 48 h
786-0 renal = test system: 786-0 renal
ACHN renal = test system: ACHN renal
CAKI-1 renal = test system: CAKI-1 renal
NCI-H522 lung = test system: NCI-H522 lung
NCI-H23 lung = test system: NCI-H23 lung
DU-145 prostate = test system: DU-145 prostate
MDA-MB-435 = test system: MDA-MB-435
UACC-62 melanoma = test system: UACC-62 melanoma
UO-31 renal = test system: UO-31 renal
TK-10 renal = test system: TK-10 renal
A498 renal = test system: A498 renal
OVCAR-8 ovarian = test system: OVCAR-8 ovarian
A549 NSCLC = test system: A549 NSCLC
UACC-257 melanoma = test system: UACC-257 melanoma
COLO 205 colon = test system: COLO 205 colon
KM12 colon = test system: KM12 colon
HL-60(TB) leukemia = test system: HL-60(TB) leukemia
LOX IMVI melanoma = test system: LOX IMVI melanoma
T-47D breast = test system: T-47D breast
PC-3 prostate = test system: PC-3 prostate
HCT-116 colon = test system: HCT-116 colon
SF-539 CNS = test system: SF-539 CNS
SW-620 colon = test system: SW-620 colon
OVCAR-5 ovarian = test system: OVCAR-5 ovarian
SF-295 CNS = test system: SF-295 CNS
RPMI-8226 leukemia = test system: RPMI-8226 leukemia
SF-268 CNS = test system: SF-268 CNS

Question: With `Clc1cccc(/C=N/Nc2nc(N/N=C/c3cccc(Cl)c3)nc(N3CCOCC3)n2)c1` as the compound, how does the GI50 (786-0 renal) read?
Answer: Its GI50 is 1.07 µM.

Question: What about the TGI (786-0 renal) of the same compound?
Answer: The TGI was 4.12 µM.

Question: And the GI50 (ACHN renal)?
Answer: The GI50 was 2.11 µM.

Question: And the TGI (ACHN renal)?
Answer: The TGI was greater than 100 µM.

Question: And the GI50 (CAKI-1 renal)?
Answer: The GI50 was 2.77 µM.

Question: And the TGI (CAKI-1 renal)?
Answer: The TGI was greater than 100 µM.

Question: And the GI50 (NCI-H522 lung)?
Answer: The GI50 was 3.21 µM.

Question: What about the TGI (NCI-H522 lung) of the same compound?
Answer: Its TGI is greater than 100 µM.

Question: What about the GI50 (NCI-H23 lung) of the same compound?
Answer: The GI50 was 4.05 µM.

Question: And the TGI (NCI-H23 lung)?
Answer: Its TGI is greater than 100 µM.

Question: What about the GI50 (DU-145 prostate) of the same compound?
Answer: Its GI50 is 2.62 µM.

Question: What about the TGI (DU-145 prostate) of the same compound?
Answer: Its TGI is greater than 100 µM.

Question: And the GI50 (MDA-MB-435)?
Answer: Its GI50 is 4.24 µM.

Question: And the TGI (MDA-MB-435)?
Answer: Its TGI is greater than 100 µM.

Question: What about the GI50 (UACC-62 melanoma) of the same compound?
Answer: Its GI50 is 4.54 µM.

Question: What about the TGI (UACC-62 melanoma) of the same compound?
Answer: The TGI was greater than 100 µM.

Question: What about the GI50 (UO-31 renal) of the same compound?
Answer: The GI50 was 1.61 µM.

Question: What about the TGI (UO-31 renal) of the same compound?
Answer: Its TGI is greater than 100 µM.

Question: What about the GI50 (TK-10 renal) of the same compound?
Answer: Its GI50 is 5.89 µM.

Question: And the TGI (TK-10 renal)?
Answer: The TGI was greater than 100 µM.

Question: And the GI50 (A498 renal)?
Answer: The GI50 was 1.67 µM.

Question: What about the TGI (A498 renal) of the same compound?
Answer: The TGI was 5.65 µM.

Question: And the GI50 (OVCAR-8 ovarian)?
Answer: Its GI50 is 4.58 µM.

Question: And the TGI (OVCAR-8 ovarian)?
Answer: Its TGI is greater than 100 µM.

Question: What about the GI50 (A549 NSCLC) of the same compound?
Answer: Its GI50 is 3.57 µM.

Question: What about the TGI (A549 NSCLC) of the same compound?
Answer: Its TGI is greater than 100 µM.

Question: And the GI50 (UACC-257 melanoma)?
Answer: Its GI50 is 2.47 µM.

Question: And the TGI (UACC-257 melanoma)?
Answer: Its TGI is 6.52 µM.

Question: What about the GI50 (COLO 205 colon) of the same compound?
Answer: The GI50 was 1.23 µM.

Question: And the TGI (COLO 205 colon)?
Answer: Its TGI is greater than 100 µM.

Question: And the GI50 (KM12 colon)?
Answer: Its GI50 is 3.61 µM.

Question: And the TGI (KM12 colon)?
Answer: The TGI was greater than 100 µM.

Question: And the GI50 (HL-60(TB) leukemia)?
Answer: The GI50 was 0.505 µM.

Question: What about the TGI (HL-60(TB) leukemia) of the same compound?
Answer: Its TGI is 3.08 µM.

Question: What about the GI50 (LOX IMVI melanoma) of the same compound?
Answer: Its GI50 is 2.99 µM.

Question: What about the TGI (LOX IMVI melanoma) of the same compound?
Answer: The TGI was greater than 100 µM.

Question: What about the GI50 (T-47D breast) of the same compound?
Answer: Its GI50 is 3.54 µM.

Question: What about the TGI (T-47D breast) of the same compound?
Answer: Its TGI is greater than 100 µM.

Question: And the GI50 (PC-3 prostate)?
Answer: The GI50 was 2.91 µM.

Question: What about the TGI (PC-3 prostate) of the same compound?
Answer: Its TGI is greater than 100 µM.

Question: What about the GI50 (HCT-116 colon) of the same compound?
Answer: Its GI50 is 1.27 µM.

Question: And the TGI (HCT-116 colon)?
Answer: Its TGI is greater than 100 µM.

Question: And the GI50 (SF-539 CNS)?
Answer: Its GI50 is 5.39 µM.

Question: What about the TGI (SF-539 CNS) of the same compound?
Answer: Its TGI is greater than 100 µM.

Question: And the GI50 (SW-620 colon)?
Answer: The GI50 was 1.78 µM.

Question: What about the TGI (SW-620 colon) of the same compound?
Answer: Its TGI is greater than 100 µM.

Question: And the GI50 (OVCAR-5 ovarian)?
Answer: The GI50 was greater than 100 µM.

Question: What about the TGI (OVCAR-5 ovarian) of the same compound?
Answer: Its TGI is greater than 100 µM.

Question: And the GI50 (SF-295 CNS)?
Answer: The GI50 was 4.13 µM.

Question: What about the TGI (SF-295 CNS) of the same compound?
Answer: The TGI was greater than 100 µM.

Question: What about the GI50 (RPMI-8226 leukemia) of the same compound?
Answer: Its GI50 is 1.9 µM.

Question: What about the TGI (RPMI-8226 leukemia) of the same compound?
Answer: The TGI was 6.79 µM.

Question: And the GI50 (SF-268 CNS)?
Answer: The GI50 was 5.1 µM.

Question: What about the TGI (SF-268 CNS) of the same compound?
Answer: Its TGI is greater than 100 µM.
